Assays:
in vivo = conditions: Terminal half-life
Method: In certain embodiments, the dosage composition may be provided twice a day in divided dosage, approximately 12 hours apart. In other embodiments, the dosage composition may be provided once daily. […] Dosage for oral administration may be from about 100 mg to about 1200 mg once or twice per day.

[1] = Solubility of mavorixafor by pH and in water; format: physicochemical
Method: Mavorixafor (formerly designated X4P-001 and AMD11070) is a CXCR4 antagonist, with molecular formula C21H27N5; molecular weight 349.48 amu; and appearance as a white to pale yellow solid. Solubility: freely soluble in the pH range 3.0 to 8.0 (>100 mg/mL), sparingly soluble at pH 9.0 (10.7 mg/mL) and slightly soluble at pH 10.0 (2.0 mg/mL). […] Melting point: 108.9° C.

WM cells [2] = experiment: Co-culture of BMSC with WM cells: BM stroma-induced IgM hypersecretion; format: cell-based; conditions: FIG. 2
IL-6 = IL-6 overexpression and hypersecretion (co-culture of BMSC with WM cells); format: cell-based; conditions: mavorixafor as a single agent
WM cells [3] = experiment: Soluble IL-6 treatment of WM cells in the absence of BMSC: CXCR4 expression and IgM secretion; format: cell-based; conditions: blockade of IL-6/IL6R/STAT3 axis, FIG. 3
From the text: FIG. 3: Even in the Absence of BMSC, Soluble IL-6 Upregulates CXCR4 Expression & IgM Secretion in WM Cells; which is Prevented by Blockade of IL-6/IL6R/STAT3 Axis. BP-1-102 is a STAT3 inhibitor.

| half-life (in vivo) [h] | solubility ([1]; aqueous buffer, pH range 3.0 to 8.0 (freely soluble)) [mg/mL] | Solubility in water ([1]; water) | Structure (SMILES) | Bone marrow stroma-induced IgM hypersecretion in WM cells (WM cells [2]) | Overexpression and hypersecretion of IL-6 (IL-6) | Soluble IL-6-induced upregulation of CXCR4 expression in WM cells (WM cells [3]) | Soluble IL-6-induced upregulation of IgM secretion in WM cells (WM cells [3]) |
| --- | --- | --- | --- | --- | --- | --- | --- |
| 12 to 24 | > 100 | only slightly soluble | NCCCCN(Cc1nc2ccccc2[nH]1)[C@H]1CCCc2cccnc21 [Mavorixafor, mavorixafor] | blocks | significantly reduces | – | – |
| – | – | – | CN(CC(=O)N(Cc1ccc(C2CCCCC2)cc1)c1ccc(C(=O)O)c(O)c1)S(=O)(=O)c1c(F)c(F)c(F)c(F)c1F [BP-1-102] | – | – | Prevented | Prevented |

From patent publication US20260053790A1, “TREATMENTS FOR CONDITIONS INVOLVING INCREASED IL-6 LEVELS” (X4 Pharmaceuticals, Inc., priority 2022, published 2026)
